In article PMC8940841, “A metabolically stable PET tracer for imaging synaptic vesicle protein 2A: synthesis and preclinical characterization of [^18F]SDM-16” (European Journal of Nuclear Medicine and Molecular Imaging, 2021):

Columns and labels:
[1] = Measurement of lipophilicity (octanol / PBS pH 7.4); format: physicochemical; conditions: octanol/PBS pH 7.4
Description: The logP of [^18F]SDM-16 was determined by a method modified from previously published procedures. Briefly, an aliquot of […] (10 µCi) of the radioligand was added to a 2-mL microtube containing 0.8 mL of octanol and 0.8 mL of 1 × phosphate buffered saline (1 × PBS, pH 7.4). The mixture was vortexed for 30 s and then centrifuged at 2000 g for 2 min. A subsample of the octanol (0.1 mL) and 1 × PBS (0.5 mL) layers was evaluated with a gamma counter. The major portion of the octanol layer (0.5 mL) was diluted with another 0.3 mL of octanol, mixed with a fresh portion of 0.8 mL of PBS, vortexed, centrifuged, and analyzed as described above. This process was repeated until consistent log P values were obtained, with five consecutive equilibration procedures being performed for each logP measurement. Four separate measurements were performed for [^18F]SDM-16 on different days.

[2] = Plasma free fraction (fp) by ultrafiltration; format: in vitro ADME, rhesus monkey; conditions: monkey, plasma (separated from spiked whole blood)
Description: The unbound fraction of [^18F]SDM-16 in plasma (fp) of rhesus monkey was measured in triplicate using the ultrafiltration method. Briefly, [^18F]SDM-16 solution was added to 3 mL of whole blood. After incubation at ambient temperature for 5 min, the blood sample was centrifuged at 3900 rpm for 5 min. A sample of the supernatant plasma (0.3 mL) was loaded onto the reservoir of a Centrifree® Ultrafiltration device (Merck Millipore Ltd. Tullagreen, Carrigtwohill, Co. Cork, IRELAND) in triplicate and centrifuged at 1228 g for 20 min. The fp value was calculated as the ratio of radioactivity in the filtrate to that in the plasma.

[3] = set-up: method as in PMID 33826008; conditions: 30 min p.i.; cited from earlier work
SV2A [4] = conditions: calculated from K1/k2 using 2TCM-c; cited from earlier work
[5] = estimated from human; cited from earlier work
SV2A [6] = target: SV2A (Macaca mulatta, UniProt H9EQH8); conditions: previously determined; cited from earlier work
Sequence of SV2A (Macaca mulatta, UniProt H9EQH8) (H9EQH8 1-742): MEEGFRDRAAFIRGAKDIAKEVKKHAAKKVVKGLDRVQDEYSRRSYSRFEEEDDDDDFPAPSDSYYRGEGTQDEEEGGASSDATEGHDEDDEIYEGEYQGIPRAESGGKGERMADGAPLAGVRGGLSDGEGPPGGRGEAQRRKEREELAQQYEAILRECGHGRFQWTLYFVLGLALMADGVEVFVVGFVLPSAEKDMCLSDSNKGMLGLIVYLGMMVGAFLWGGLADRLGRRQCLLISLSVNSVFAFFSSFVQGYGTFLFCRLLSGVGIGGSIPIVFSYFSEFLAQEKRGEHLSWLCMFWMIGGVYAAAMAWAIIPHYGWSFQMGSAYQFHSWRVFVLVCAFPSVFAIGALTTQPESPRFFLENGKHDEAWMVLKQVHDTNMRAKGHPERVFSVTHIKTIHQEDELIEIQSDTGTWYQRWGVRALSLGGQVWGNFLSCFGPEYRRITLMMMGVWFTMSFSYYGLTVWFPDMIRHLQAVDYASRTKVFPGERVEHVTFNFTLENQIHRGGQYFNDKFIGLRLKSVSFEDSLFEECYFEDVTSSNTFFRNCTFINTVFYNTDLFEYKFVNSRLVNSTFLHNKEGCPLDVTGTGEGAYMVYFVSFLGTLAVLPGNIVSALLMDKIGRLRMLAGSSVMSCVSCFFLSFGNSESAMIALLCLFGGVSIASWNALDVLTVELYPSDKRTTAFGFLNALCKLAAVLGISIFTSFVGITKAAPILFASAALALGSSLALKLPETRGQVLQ

For `O=C1C[C@H](c2cc(F)c(F)c(F)c2)CN1Cc1ccncc1[18F]` [[^18F]UCB-H], which logP [1] is on record?
Its logP is 2.31.

What about the fraction unbound at 5 min [2] of the same compound?
The fraction unbound at 5 min was 0.43.

And the “parent fraction in plasma” value [3]?
The value was 30 ± 3%.

What about the “brain tissue free fraction fND” value (SV2A [4]) of the same compound?
Its value is 6.1%.

And the “effective dose (ED)” value [5]?
The value was 15.4 µSv/MBq.

What about the VND (SV2A [6]) of the same compound?
The VND was 7.89 mL/cm^3.
